How the values were obtained:
mice with CIA = experiment: Collagen‐induced arthritis (CIA) model, clinical arthritis score; format: in vivo, mouse (DBA/1); settings: 0.1 mg/kg, positive control; data not shown
Experimental: (§1) Animal studies were performed by Bolder BioPATH (Boulder, CO, USA). CIA was induced in male 6‐ to 7‐week‐old DBA/1 mice by immunization with bovine type II collagen as previously described 19. Briefly, mice were injected intradermally with 100 μl of Freund's complete adjuvant containing 250 μg of bovine type II collagen (2 mg/ml final concentration) at the base of the tail on day 0 and again on day 21. On day 24, mice were randomized by body weight into treatment groups. At enrolment on day 24, the mean mouse weight was 20 g. Arthritis onset occurred on days 26‐38. Starting day 24, mice were injected intraperitoneally (i.p.) daily for 14 consecutive days with GF9 (2.5 and 25 mg/kg), GF9‐G (25 mg/kg), GF9‐dHDL (2.5 mg/kg), GF9‐sHDL (2.5 mg/kg), GA/E31‐dHDL (dose equivalent to 4 mg of GF9/kg), GA/E31‐sHDL (dose equivalent to 4 mg of GF9/kg) or with PBS. Mice were weighed on study days 24, 26, 28, 30, 32, 34, 36 and 38 (prior to necropsy). Daily clinical scores were given on a scale of 0–5 for each of the paws on days 24–38 using previously described criteria 19. On day 38, mice were killed for necropsy.

joints of mice with CIA = experiment: Histology assessment of joints in CIA; format: in vivo, mouse (DBA/1); set-up: dose or concentration left out as unconfirmed
Experimental: as §1, with “([…]),” for “(i.p.) daily for 14 consecutive days with GF9 (2.5 and 25 mg/kg), GF9‐G (25 mg/kg), GF9‐dHDL (2.5 mg/kg),”, “([…]),” for “(dose equivalent to 4 mg of GF9/kg),”, “([…])” for “(dose equivalent to 4 mg of GF9/kg)”, “On day 38, mice were killed for necropsy.” left out
At the end of study, fore paws, hind paws and knees were harvested, fixed in 10% neutral buffered formalin for 1–2 days, and then decalcified in 5% formic acid for 4–5 days before standard processing for paraffin embedding. […] The joints were then assessed using 0–5 scale for inflammation, pannus formation, cartilage damage, bone resorption and periosteal new bone formation as previously reported 19. A summed histopathology score (sum of five parameters, 0–25 scale) was also determined.

For `C[C@@H]1C[C@H]2[C@@H]3CCC4=CC(=O)C=C[C@]4(C)[C@@]3(F)[C@@H](O)C[C@]2(C)[C@@]1(O)C(=O)CO` [dexamethasone], the “anti‐arthritic effect relative to GF9 at 25 mg/kg” value (mice with CIA) was “comparable”, the “joint lesions (histopathology)” value (joints of mice with CIA; arthritic mice, day 38, not shown) was “No lesions were observed” and the “reduction of summed histopathology scores compared to vehicle‐treated mice” value (joints of mice with CIA; data not shown) was 99%.
